Results published in ChEMBL document CHEMBL1130222, “Induction of the estrogen specific mitogenic response of MCF-7 cells by selected analogues of estradiol-17 beta: a 3D QSAR study” (J Med Chem, 1997).
pEC50: −log10 of the molar value.

tested on: MCF7; assay: cells; conditions: Homo sapiens
Description: Growth response in cultures of MCF-7 (human breast cancer cell line) cells

Point of comparison: C[C@]12CC[C@@H]3c4ccccc4CCC3[C@@H]1CC[C@@H]2O (single isomer, unassigned), pEC50 9.50. Against it:
- C[C@]12CC[C@H]3C(=CCc4cc(O)ccc43)[C@@H]1CC[C@@H]2O — 2.31 log units higher, 11.81
- C[C@]12CC[C@H]3[C@H](CC=C4C[C@@H](O)CC[C@@]43C)[C@@H]1CC[C@@H]2O — 0.65 log units lower, 8.85
- C[C@]12CCc3c(ccc4cc(O)ccc34)[C@@H]1CC[C@@H]2O — 1.40 log units higher, 10.90
- C[C@]12CC[C@@H]3c4ccc(O)cc4C=C[C@@H]3[C@@H]1CC[C@@H]2O — 1.88 log units higher, 11.38
- C[C@]12CC[C@@H]3c4ccc(O)cc4[C@@H](O)CC3[C@@H]1CC[C@@H]2O (single isomer, unassigned) — 0.23 log units higher, 9.73
- C[C@]12C[C@H](O)[C@@H]3c4ccc(O)cc4CCC3[C@@H]1CC[C@@H]2O (single isomer, unassigned) — 1.29 log units higher, 10.79
- C[C@]12CC[C@@H]3c4ccc([N+](=O)[O-])cc4CCC3[C@@H]1CC[C@@H]2O (single isomer, unassigned) — 0.83 log units lower, 8.67
- C[C@]12CC[C@@H]3c4cc([N+](=O)[O-])ccc4CCC3[C@@H]1CC[C@@H]2O (single isomer, unassigned) — 1.97 log units lower, 7.53
- C[C@]12CC[C@@H]3c4c(O)cccc4CCC3[C@@H]1CC[C@@H]2O (single isomer, unassigned) — 0.70 log units lower, 8.80
- C[C@]12CC[C@@H]3c4cccc([N+](=O)[O-])c4CCC3[C@@H]1CC[C@@H]2O (single isomer, unassigned) — 2.03 log units lower, 7.47
- C[C@]12CC[C@@H]3c4ccc(O)c(N)c4CCC3[C@@H]1CC[C@@H]2O (single isomer, unassigned) — within 0.2 log units, 9.46
- C[C@]12CC[C@@H]3c4ccc(O)cc4CCC3[C@@H]1C[C@@H](O)C2 (single isomer, unassigned) — within 0.2 log units, 9.63
- C[C@]12CC[C@@H]3c4ccc(O)cc4CC(=O)C3[C@@H]1CC[C@@H]2O (single isomer, unassigned) — 1.30 log units higher, 10.80
- C[C@]12CC[C@@H]3c4cccc(I)c4CCC3[C@@H]1CC[C@@H]2O (single isomer, unassigned) — 0.72 log units lower, 8.78
- C[C@]12CC[C@@H]3c4ccc(O)cc4C[C@@H](O)C3[C@@H]1CC[C@@H]2O (single isomer, unassigned) — 0.32 log units higher, 9.82
- C[C@]12CC[C@@H]3c4cc(N)ccc4CCC3[C@@H]1CC[C@@H]2O (single isomer, unassigned) — 0.40 log units higher, 9.90
- C[C@]12CC[C@@H]3c4cccc(O)c4CCC3[C@@H]1CC[C@@H]2O (single isomer, unassigned) — 1.18 log units lower, 8.32
- C[C@]12CC[C@@H]3c4cc([N+](=O)[O-])c(O)cc4CCC3[C@@H]1CC[C@@H]2O (single isomer, unassigned) — 2.03 log units lower, 7.47
- C[C@]12CC[C@@H]3c4c(N)cccc4CCC3[C@@H]1CC[C@@H]2O (single isomer, unassigned) — 1.95 log units lower, 7.55
- C[C@]12CC[C@@H]3c4ccc(O)cc4C[C@H](O)C3[C@@H]1CC[C@@H]2O (single isomer, unassigned) — 1.41 log units higher, 10.91
- C[C@]12C[C@@H](O)[C@@H]3c4ccc(O)cc4CCC3[C@@H]1CC[C@@H]2O (single isomer, unassigned) — 0.94 log units higher, 10.44
- C[C@]12CC[C@@H]3c4ccc(N)cc4CCC3[C@@H]1CC[C@@H]2O (single isomer, unassigned) — 0.68 log units lower, 8.82
- C[C@@]12CCC[C@H]1C1CCc3ccccc3[C@H]1CC2 (single isomer, unassigned) — 2.80 log units lower, 6.70
- C[C@]12CC[C@@H]3c4ccc(O)c([N+](=O)[O-])c4CCC3[C@@H]1CC[C@@H]2O (single isomer, unassigned) — 0.45 log units lower, 9.05
- C[C@]12CC[C@@H]3c4cc(O)ccc4CCC3[C@@H]1CC[C@@H]2O (single isomer, unassigned) — 0.98 log units higher, 10.48
- C[C@]12CC[C@@H]3c4ccc(I)cc4CCC3[C@@H]1CC[C@@H]2O (single isomer, unassigned) — 0.26 log units higher, 9.76
- C[C@]12CC[C@@H]3c4cc(N)c(O)cc4CCC3[C@@H]1CC[C@@H]2O (single isomer, unassigned) — 0.25 log units lower, 9.25
- C[C@]12CC(=O)[C@@H]3c4ccc(O)cc4CCC3[C@@H]1CC[C@@H]2O (single isomer, unassigned) — 1.45 log units lower, 8.05
- C[C@]12CC[C@@H]3c4c(cccc4[N+](=O)[O-])CCC3[C@@H]1CC[C@@H]2O (single isomer, unassigned) — 2.28 log units lower, 7.22
- C[C@]12CC[C@@H]3c4cc(I)ccc4CCC3[C@@H]1CC[C@@H]2O (single isomer, unassigned) — 0.73 log units lower, 8.77
- C[C@]12CC[C@@H]3c4cccc(N)c4CCC3[C@@H]1CC[C@@H]2O (single isomer, unassigned) — 0.80 log units lower, 8.70
- C[C@@]12CCC[C@H]1C1CCc3cc(O)ccc3[C@H]1CC2 (single isomer, unassigned) — 0.43 log units higher, 9.93
- C[C@]12CC[C@@H]3c4ccc(O)cc4C(=O)CC3[C@@H]1CC[C@@H]2O (single isomer, unassigned) — 1.97 log units higher, 11.47
- C[C@]12CC[C@@H]3c4ccc(O)cc4[C@H](O)CC3[C@@H]1CC[C@@H]2O (single isomer, unassigned) — 0.74 log units higher, 10.24
- C[C@]12CC[C@@H](O)C[C@@H]1CCC1[C@@H]2CC[C@]2(C)[C@@H](O)CC[C@@H]12 (single isomer, unassigned) [ANDROSTANDIOL] — lower, < 5.00
- C[C@]12CC[C@H](O)C[C@@H]1CCC1[C@@H]2CC[C@]2(C)[C@@H](O)CC[C@@H]12 (single isomer, unassigned) [ANDROSTANEDIOL] — 1.17 log units lower, 8.33
- C[C@]12CC[C@@H]3c4ccc(O)cc4CCC3[C@@H]1C[C@@H](O)[C@@H]2O (single isomer, unassigned) [ESTRIOL] — 0.82 log units higher, 10.32

biological target: Estrogen receptor (Homo sapiens) (UniProt Q92731+P03372); assay: not given; conditions: not given

Point of comparison: C[C@]12CC[C@@H]3c4ccc([N+](=O)[O-])cc4CCC3[C@@H]1CC[C@@H]2O (single isomer, unassigned), Ka 7.77e+06 M⁻¹. Against it:
- C[C@]12CC[C@H]3[C@H](CC=C4C[C@@H](O)CC[C@@]43C)[C@@H]1CC[C@@H]2O — 3.5-fold higher, 2.7e+07 M⁻¹
- C[C@]12CCc3c(ccc4cc(O)ccc34)[C@@H]1CC[C@@H]2O — 200-fold higher, 1.52e+09 M⁻¹
- C[C@]12CC[C@@H]3c4ccc(O)cc4[C@@H](O)CC3[C@@H]1CC[C@@H]2O (single isomer, unassigned) — 11-fold higher, 8.88e+07 M⁻¹
- C[C@]12C[C@H](O)[C@@H]3c4ccc(O)cc4CCC3[C@@H]1CC[C@@H]2O (single isomer, unassigned) — 8-fold higher, 6.22e+07 M⁻¹
- C[C@]12CC[C@@H]3c4cc([N+](=O)[O-])ccc4CCC3[C@@H]1CC[C@@H]2O (single isomer, unassigned) — lower, < 1.85e+06 M⁻¹
- C[C@]12CC[C@@H]3c4c(O)cccc4CCC3[C@@H]1CC[C@@H]2O (single isomer, unassigned) — 2.3-fold higher, 1.8e+07 M⁻¹
- C[C@]12CC[C@@H]3c4cccc([N+](=O)[O-])c4CCC3[C@@H]1CC[C@@H]2O (single isomer, unassigned) — lower, < 1.85e+06 M⁻¹
- C[C@]12CC[C@@H]3c4ccc(O)c(N)c4CCC3[C@@H]1CC[C@@H]2O (single isomer, unassigned) — 27-fold higher, 2.11e+08 M⁻¹
- C[C@]12CC[C@@H]3c4ccc(O)cc4CCC3[C@@H]1C[C@@H](O)C2 (single isomer, unassigned) — 380-fold higher, 2.97e+09 M⁻¹
- C[C@]12CC[C@@H]3c4ccc(O)cc4CC(=O)C3[C@@H]1CC[C@@H]2O (single isomer, unassigned) — 440-fold higher, 3.39e+09 M⁻¹
- C[C@]12CC[C@@H]3c4cccc(I)c4CCC3[C@@H]1CC[C@@H]2O (single isomer, unassigned) — 1.8-fold lower, 4.44e+06 M⁻¹
- C[C@]12CC[C@@H]3c4ccc(O)cc4C[C@@H](O)C3[C@@H]1CC[C@@H]2O (single isomer, unassigned) — 8.1-fold higher, 6.3e+07 M⁻¹
- C[C@]12CC[C@@H]3c4cc(N)ccc4CCC3[C@@H]1CC[C@@H]2O (single isomer, unassigned) — 19-fold higher, 1.45e+08 M⁻¹
- C[C@]12CC[C@@H]3c4cccc(O)c4CCC3[C@@H]1CC[C@@H]2O (single isomer, unassigned) — 32-fold higher, 2.5e+08 M⁻¹
- C[C@]12CC[C@@H]3c4cc([N+](=O)[O-])c(O)cc4CCC3[C@@H]1CC[C@@H]2O (single isomer, unassigned) — 2.1-fold lower, 3.7e+06 M⁻¹
- C[C@]12CC[C@@H]3c4c(N)cccc4CCC3[C@@H]1CC[C@@H]2O (single isomer, unassigned) — lower, < 1.85e+06 M⁻¹
- C[C@]12CC[C@@H]3c4ccc(O)cc4C[C@H](O)C3[C@@H]1CC[C@@H]2O (single isomer, unassigned) — 470-fold higher, 3.66e+09 M⁻¹
- C[C@]12C[C@@H](O)[C@@H]3c4ccc(O)cc4CCC3[C@@H]1CC[C@@H]2O (single isomer, unassigned) — within 1.5-fold, 1.15e+07 M⁻¹
- C[C@]12CC[C@@H]3c4ccc(N)cc4CCC3[C@@H]1CC[C@@H]2O (single isomer, unassigned) — 36000-fold higher, 2.78e+11 M⁻¹
- C[C@@]12CCC[C@H]1C1CCc3ccccc3[C@H]1CC2 (single isomer, unassigned) — lower, < 1.8e+06 M⁻¹
- C[C@]12CC[C@@H]3c4ccc(O)c([N+](=O)[O-])c4CCC3[C@@H]1CC[C@@H]2O (single isomer, unassigned) — 19-fold higher, 1.44e+08 M⁻¹
- C[C@]12CC[C@@H]3c4cc(O)ccc4CCC3[C@@H]1CC[C@@H]2O (single isomer, unassigned) — 330-fold higher, 2.6e+09 M⁻¹
- C[C@]12CC[C@@H]3c4ccc(I)cc4CCC3[C@@H]1CC[C@@H]2O (single isomer, unassigned) — 2.5-fold higher, 1.96e+07 M⁻¹
- C[C@]12CC[C@@H]3c4cc(N)c(O)cc4CCC3[C@@H]1CC[C@@H]2O (single isomer, unassigned) — 17-fold higher, 1.33e+08 M⁻¹
- C[C@]12CC(=O)[C@@H]3c4ccc(O)cc4CCC3[C@@H]1CC[C@@H]2O (single isomer, unassigned) — 2.3-fold lower, 3.33e+06 M⁻¹
- C[C@]12CC[C@@H]3c4c(cccc4[N+](=O)[O-])CCC3[C@@H]1CC[C@@H]2O (single isomer, unassigned) — lower, < 1.85e+06 M⁻¹
- C[C@]12CC[C@@H]3c4cc(I)ccc4CCC3[C@@H]1CC[C@@H]2O (single isomer, unassigned) — 2.3-fold lower, 3.33e+06 M⁻¹
- C[C@]12CC[C@@H]3c4cccc(N)c4CCC3[C@@H]1CC[C@@H]2O (single isomer, unassigned) — 2.8-fold higher, 2.15e+07 M⁻¹
- C[C@]12CC[C@@H]3c4ccccc4CCC3[C@@H]1CC[C@@H]2O (single isomer, unassigned) — 53-fold higher, 4.1e+08 M⁻¹
- C[C@@]12CCC[C@H]1C1CCc3cc(O)ccc3[C@H]1CC2 (single isomer, unassigned) — 380-fold higher, 2.93e+09 M⁻¹
- C[C@]12CC[C@@H]3c4ccc(O)cc4C(=O)CC3[C@@H]1CC[C@@H]2O (single isomer, unassigned) — 140-fold higher, 1.09e+09 M⁻¹
- C[C@]12CC[C@@H]3c4ccc(O)cc4[C@H](O)CC3[C@@H]1CC[C@@H]2O (single isomer, unassigned) — 9-fold higher, 7e+07 M⁻¹
- C[C@]12CC[C@@H](O)C[C@@H]1CCC1[C@@H]2CC[C@]2(C)[C@@H](O)CC[C@@H]12 (single isomer, unassigned) [ANDROSTANDIOL] — lower, < 1.85e+06 M⁻¹
- C[C@]12CC[C@H](O)C[C@@H]1CCC1[C@@H]2CC[C@]2(C)[C@@H](O)CC[C@@H]12 (single isomer, unassigned) [ANDROSTANEDIOL] — 2.3-fold higher, 1.8e+07 M⁻¹
